{
  "source": "patent US7803930B2",
  "about": "“Antisense modulation of apolipoprotein B-expression” (Isis Pharmaceuticals, Inc., priority 2002, dated 2010)",
  "key": {"[1]": {"test_system": "human apolipoprotein B mRNA", "assay": "Inhibition of human apolipoprotein B mRNA levels in HepG2 cells, quantitative real-time PCR", "type": "cell-based", "details": "for % inhibition of apolipoprotein B mRNA levels / % inhibition 37 nM / % inhibition 75 nM / % inhibition 150 nM / % inhibition 300 nM: normalized to untreated control; for % inhibition of apolipoprotein B mRNA levels: average of two experiments; for % inhibition 37 nM / % inhibition 75 nM / % inhibition 150 nM / % inhibition 300 nM: Table 19 dose response; for % INHIB (inhibition of human apolipoprotein B mRNA levels): HepG2 cells treated with 150 nM of compound, quantitative real-time PCR", "summary_of_the_method": "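HepG2 cells at 80% confluency were transfected with antisense oligonucleotide using 3.75 μg/mL Lipofectin in Opti-MEM for 4-7 h and harvested 16-24 h after treatment. Apolipoprotein B mRNA was measured by real-time RT-PCR and normalized to GAPDH or RiboGreen total RNA. Percent inhibition came from untreated-control standard curves.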"}, "[2]": {"assay": "Toxicity in C57BL/6 mice, two weeks (Example 48): liver enzyme levels, body, liver and spleen weight", "type": "in vivo, mouse", "design": "Weight BODY / Weight LIVER / Weight SPLEEN: unit not given here", "details": "25 mg/kg i.p. twice a week", "protocol": "C57BL/6 mice were divided into two groups—one group receiving oligonucleotide treatment and control animals receiving saline treatment. After overnight fasting, mice were dosed intraperitoneally twice a week with saline or 25 mg/kg of one of several oligonucleotides for two weeks. The antisense oligonucleotides used in the present study were ISIS 233172 (SEQ ID NO: 835) and ISIS 233175 (SEQ ID NO: 838), both targeted to rabbit apolipoprotein B, and ISIS 281625 (SEQ ID NO: 224), ISIS 301012 (SEQ ID NO: 247), and ISIS 301027 (SEQ ID NO: 262), targeted to human apolipoprotein B. At study termination and forty eight hours after the final injections, animals were sacrificed and evaluated for liver enzyme levels, body weight, liver weight, and spleen weight."}, "[3]": {"details": "HepG2 cells, 12.5 nM oligonucleotide"}, "[4]": {"details": "HepG2 cells, 37 nM oligonucleotide"}, "[5]": {"details": "HepG2 cells, 75 nM oligonucleotide"}, "[6]": {"details": "HepG2 cells, 150 nM oligonucleotide"}, "[7]": {"details": "HepG2 cells, 300 nM oligonucleotide"}},
  "note": "In the oligonucleotide strings, read from the 5' end, every base follows the letter of its sugar. An asterisk marks phosphorothioate; unmarked linkages are phosphodiester. Other units and linkages are bracketed, terminal groups are in braces. A string of capitals states the bases alone. e = 2'-O-(2-methoxyethyl) (MOE); [5mC] = 5-methylcytosine; d = 2'-deoxy (DNA)",
  "data": [
    {"substance": "271009 (antisense eG*e[5mC]*e[5mC]*eT*e[5mC]*dA*dG*dT*d[5mC]*dT*dG*d[5mC]*dT*dT*d[5mC]*eG*e[5mC]*eG*e[5mC]*e[5mC]) [compound 271009]", "values": [
      {"measurement": "% inhibition of apolipoprotein B mRNA levels", "setting": "[1]; [3]", "result": 67, "unit": "%"},
      {"measurement": "% inhibition of apolipoprotein B mRNA levels", "setting": "[1]; [4]", "result": 86, "unit": "%"},
      {"measurement": "% inhibition of apolipoprotein B mRNA levels", "setting": "[1]; [5]", "result": 92, "unit": "%"},
      {"measurement": "% inhibition of apolipoprotein B mRNA levels", "setting": "[1]; [6]", "result": 94, "unit": "%"},
      {"measurement": "% inhibition of apolipoprotein B mRNA levels", "setting": "[1]; [7]", "result": 95, "unit": "%"},
      {"measurement": "% INHIB", "setting": "[1]; Table 12, HepG2 cells, 150 nM, averages from two experiments", "result": 75, "unit": "%"},
      {"measurement": "% inhibition 37 nM", "setting": "[1]; HepG2 cells", "result": 82, "unit": "%"},
      {"measurement": "% inhibition 75 nM", "setting": "[1]; HepG2 cells", "result": 91, "unit": "%"},
      {"measurement": "% inhibition 150 nM", "setting": "[1]; HepG2 cells, 150 nM", "result": 94, "unit": "%"},
      {"measurement": "% inhibition 300 nM", "setting": "[1]; HepG2 cells", "result": 96, "unit": "%"}
    ]},
    {"substance": "281625 (antisense eA*eG*eG*eT*eT*dA*d[5mC]*d[5mC]*dA*dG*d[5mC]*d[5mC]*dA*d[5mC]*dA*eT*eG*e[5mC]*eA*eG) [compound 281625]", "values": [
      {"measurement": "% INHIB (inhibition of human apolipoprotein B mRNA levels)", "setting": "[1]; averages from two experiments", "result": 94, "unit": "%"},
      {"measurement": "% inhibition of apolipoprotein B mRNA levels", "setting": "[1]; [3]", "result": 44, "unit": "%"},
      {"measurement": "% inhibition of apolipoprotein B mRNA levels", "setting": "[1]; [4]", "result": 66, "unit": "%"},
      {"measurement": "% inhibition of apolipoprotein B mRNA levels", "setting": "[1]; [5]", "result": 83, "unit": "%"},
      {"measurement": "% inhibition of apolipoprotein B mRNA levels", "setting": "[1]; [6]", "result": 85, "unit": "%"},
      {"measurement": "% inhibition of apolipoprotein B mRNA levels", "setting": "[1]; [7]", "result": 94, "unit": "%"},
      {"measurement": "% inhibition 37 nM", "setting": "[1]; HepG2 cells", "result": 62, "unit": "%"},
      {"measurement": "% inhibition 75 nM", "setting": "[1]; HepG2 cells", "result": 76, "unit": "%"},
      {"measurement": "% inhibition 150 nM", "setting": "[1]; HepG2 cells, 150 nM", "result": 84, "unit": "%"},
      {"measurement": "% inhibition 300 nM", "setting": "[1]; HepG2 cells", "result": 94, "unit": "%"},
      {"measurement": "Liver Enzymes ALT", "setting": "[2]", "result": 36.2, "unit": "IU/L"},
      {"measurement": "Liver Enzymes AST", "setting": "[2]", "result": 89.5, "unit": "IU/L"},
      {"measurement": "Weight BODY", "setting": "[2]", "result": 20.9},
      {"measurement": "Weight LIVER", "setting": "[2]", "result": 1.2},
      {"measurement": "Weight SPLEEN", "setting": "[2]", "result": 0.1}
    ]},
    {"substance": "301012 (eG*e[5mC]*e[5mC]*eT*e[5mC]*dA*dG*dT*d[5mC]*dT*dG*d[5mC]*dT*dT*d[5mC]*eG*e[5mC]*eA*e[5mC]*e[5mC]) [compound 301012]", "values": [
      {"measurement": "% INHIB (inhibition of human apolipoprotein B mRNA levels)", "setting": "[1]; averages from two experiments", "result": 87, "unit": "%"},
      {"measurement": "% inhibition of apolipoprotein B mRNA levels", "setting": "[1]; [3]", "result": 63, "unit": "%"},
      {"measurement": "% inhibition of apolipoprotein B mRNA levels", "setting": "[1]; [4]", "result": 79, "unit": "%"},
      {"measurement": "% inhibition of apolipoprotein B mRNA levels", "setting": "[1]; [5]", "result": 90, "unit": "%"},
      {"measurement": "% inhibition of apolipoprotein B mRNA levels", "setting": "[1]; [6]", "result": 92, "unit": "%"},
      {"measurement": "% inhibition of apolipoprotein B mRNA levels", "setting": "[1]; [7]", "result": 95, "unit": "%"},
      {"measurement": "% Change in apolipoprotein B mRNA expression", "setting": "[1]; HepG2 cells, 10 nM, 24 hour (Table 41)", "result": "−51", "unit": "%"},
      {"measurement": "% Change in apolipoprotein B mRNA expression", "setting": "[1]; HepG2 cells, 50 nM, 24 hour (Table 40)", "result": "−44", "unit": "%"},
      {"measurement": "% Change in apolipoprotein B mRNA expression", "setting": "[1]; HepG2 cells, 50 nM, 24 hour (Table 41)", "result": "−72", "unit": "%"},
      {"measurement": "% Change in apolipoprotein B mRNA expression", "setting": "[1]; HepG2 cells, 150 nM, 24 hour (Table 40)", "result": "−75", "unit": "%"},
      {"measurement": "% Change in apolipoprotein B mRNA expression", "setting": "[1]; HepG2 cells, 150 nM, 24 hour (Table 41)", "result": "−92", "unit": "%"},
      {"measurement": "Liver Enzymes ALT", "setting": "[2]", "result": 21.2, "unit": "IU/L"},
      {"measurement": "Liver Enzymes AST", "setting": "[2]", "result": 50.6, "unit": "IU/L"},
      {"measurement": "Weight BODY", "setting": "[2]", "result": 21.3},
      {"measurement": "Weight LIVER", "setting": "[2]", "result": 1.1},
      {"measurement": "Weight SPLEEN", "setting": "[2]", "result": 0.1}
    ]},
    {"substance": "301027 (eG*e[5mC]*eT*e[5mC]*eA*d[5mC]*dT*dG*dT*dA*dT*dG*dG*dT*dT*eT*eT*eA*eT*e[5mC]; antisense) [compound 301027]", "values": [
      {"measurement": "% INHIB (inhibition of human apolipoprotein B mRNA levels)", "setting": "[1]; averages from two experiments", "result": 89, "unit": "%"},
      {"measurement": "% inhibition 37 nM", "setting": "[1]; HepG2 cells", "result": 80, "unit": "%"},
      {"measurement": "% inhibition 75 nM", "setting": "[1]; HepG2 cells", "result": 90, "unit": "%"},
      {"measurement": "% inhibition 150 nM", "setting": "[1]; HepG2 cells, 150 nM", "result": 95, "unit": "%"},
      {"measurement": "% inhibition 300 nM", "setting": "[1]; HepG2 cells", "result": 96, "unit": "%"},
      {"measurement": "Liver Enzymes ALT", "setting": "[2]", "result": 221.3, "unit": "IU/L"},
      {"measurement": "Liver Enzymes AST", "setting": "[2]", "result": 455.3, "unit": "IU/L"},
      {"measurement": "Weight BODY", "setting": "[2]", "result": 21.2},
      {"measurement": "Weight LIVER", "setting": "[2]", "result": 1.3},
      {"measurement": "Weight SPLEEN", "setting": "[2]", "result": 0.1}
    ]},
    {"substance": "ISIS 301027: SEQ ID NO: 262, 2′-MOE gapmer targeted to human apolipoprotein B (antisense eG*e[5mC]*eT*e[5mC]*eA*d[5mC]*dT*dG*dT*dA*dT*dG*dG*dT*dT*eT*eT*eA*eT*e[5mC])", "values": [
      {"measurement": "levels of liver enzymes relative to saline treatment", "setting": "[2]", "result": "drastically increased"}
    ]}
  ]
}
